In patent publication US20140259223A1, “METHODS FOR PRODUCING CINNAMOLIDE AND/OR DRIMENDIOL” (Keygene N.V., priority 2011, published 2014):

Experiments:
[1] = test system: Myzus persicae; test: dual-choice insect feeding assay on tomato leaf disks, aphids; type: in vivo; conditions: for effect on feeding at the lowest concentration used: lowest concentration used (113 μg gFW^−1 for cinnamolide)
Method: (§1) The insects used in this study were the silverleaf whitefly Bemisia tabaci (genotype B) and the green peach aphid Myzus persicae. Whiteflies were reared on tomato (Moneymaker cultivar) in a greenhouse at 26° C., at 60% relative humidity with a photoperiod of 16 h light and 8 h dark. To perform the assays, adult flies of both genders were collected from leaves with an aspirator. They were cold-anesthetized at 7° C. in a 3 cm diameter plastic cylinder covered with Parafilm® for 5 min, before being released into the Petri dish at the start of the dual-choice assay, to ensure they would not fly out before the dishes were sealed. Apterous (without wings) aphid adults were collected from Chinese cabbage (Brassica rapa L. subspecies pekinensis), on which they had been reared at room temperature in ambient light. They were collected in 2 ml test tubes and starved for about 30 min before inoculating them in the dishes. In the dual-choice assays, insects were presented with circular tomato leaf areas coated with either 50% ethanol in water (control) or a solution of cinnamolide in 50% ethanol in water (treatment; two disks with each solution). Cinnamolide was firstly dissolved in 96% ethanol at a concentration of 2 mg mL^−1; subsequently an equal volume of water was added bringing the maximum concentration used to 1 mg mL^−1. Further dilutions were performed adding directly one volume of 50% ethanol in water to one volume of the previous concentration. The three concentrations used were therefore 1 mg mL^−1, 500 μg mL^−1 and 250 μg mL^−1. […] The assays were carried on for either 18 or 24 h and the feeding insects counted at 30 min, 1 h, 2 h, 6 h, and 18 h for whiteflies and at 30 min, 1 h, 2 h, 6 h, and 24 h for aphids. […] To convert data from the concentration in ethanol, expressed as mg mL^−1, into concentration expressed as mg gFW^−1, the value must be multiplied by 15 (the volume in μL applied on each disk) and divided by 0.034 (mass of leaf disk in grams). […]

[2] = test system: Bemisia tabaci; test: dual-choice insect feeding assay on tomato leaf disks, whiteflies; type: in vivo
Method: as §1, with “dishes.” for “dishes. In the dual-choice assays, insects were presented with circular tomato leaf areas coated with either 50% ethanol in water (control) or a solution of cinnamolide in 50% ethanol in water (treatment; two disks with each solution). Cinnamolide was firstly dissolved in 96% ethanol at a concentration of 2 mg mL^−1; subsequently an equal volume of water was added bringing the maximum concentration used to 1 mg mL^−1. Further dilutions were performed adding directly one volume of 50% ethanol in water to one volume of the previous concentration. The three concentrations used were therefore 1 mg mL^−1, 500 μg mL^−1 and 250 μg mL^−1.”

[3] = 450, 225 and 113 μg gFW^−1, 6 h

SMILES	Antifeedant Index (Al %), dose response [1, 3]	effect on feeding at the lowest concentration used [1]	Antifeedant Index (Al %), dose response [2, 3]	attractant (phagostimulant) effect at the lowest concentration used ([2]; lowest concentration used (113 μg gFW^−1))
CC1(C)CCC[C@]2(C)[C@H]3COC(=O)C3=CC[C@@H]12 [cinnamolide]	increases with the increasing concentrations applied	attractant (phagostimulant) effect	increases with the increasing concentrations applied	not seen
CC1(C)CCC[C@]2(C)[C@@H](C=O)C(C=O)=CC[C@@H]12 [polygodial, reference compound]		attractant (phagostimulant) effect		
